Source: patent publication US6921530B1, “Low dose IL-2 for potentiation of immunity” (Cornell Research Foundation, Inc., priority 1999, dated 2005)

Legend:
HCV = conditions: cited from earlier work
HBV = conditions: cited from earlier work
HIV infection = experiment: Daily IL-2 in conjunction with HAART in HIV infection (earlier experience); type: in vivo, human; conditions: after 6 months of IL-2 therapy
Text: Daily low-dose IL-2 therapy served to correct the deficiency in CD4+ T cells, while maintaining the high frequency of CD8+ HIV-specific CTL, and increasing the circulating NK cells.

[1] = Tolerability of daily IL-2 doses in earlier studies of the applicant; type: in vivo
Procedure: a) IL-2: The initial dose of IL-2 used in this study is based on our studies in HIV infection. Individuals with HIV were able to tolerate rIL-2 at 1.2×10^6 IU/m^2/day. […] Peak plasma levels are measured at two hours after initial IL-2 injection. Dosage adjustments of IL-2 are made under the following circumstances:
(1) IL-2 Dosage reduction: If a subject experiences WHO grade I systemic toxicity, and is unable to tolerate the daily dose of rIL-2 at 1.2×10^6 IU/m^2/day, the dose is reduced to 0.9×10^6 IU/m^2/day. In the event that toxicity continues, the dose is decreased to 0.75 IU/m^2/day, which is halfway between the previous dose and the dose we have previously determined to be ineffective (0.6 IU/m^2/d).
This dose is midway between the starting dose and the dose found to be toxic in 100% of patients (2.4×10^6 IU /m^2/d). In the event that toxicity occurs, the dose is adjusted to 1.4×10^6 IU 1m^2/day, and if there is still toxicity, the dose will be returned to 1.2×10^6 IU /m^2/day.

[2] = test system: circulating lymphocyte subsets (CD4+ T cells, CD8+ T cells, NK cells); experiment: Circulating lymphocyte subsets by flow cytometry in HIV-positive subjects on PART + IL-2 and after cessation of PART; type: in vivo, human
Text: Conditions for patient exclusion included a) uncontrolled infection; b) concurrent therapy with glucocorticoids or other immunosuppressive agents; or c) concurrent immunomodulating agents, eg. IFN-a, granulocyte colony stimulating factor (G-CSF), granulocyte-monocyte colony stimulating factor (GM-CSF).
Prior to the discontinuation of PART, at least 3 months of daily, low-dose (250,000 U/m^2) subcutaneous IL-2 (R-Met-HU IL2-Ala-125, Amgen, Thousand Oaks, Calif.) immuno-stimulatory therapy were administered as described in Jacobsen, E L et al., Proc Natl Acad Sci USA 93:10405-10 (1996). In addition, to ensure the safest possible immune parameters for the discontinuation of PART, IL-2 immuno-stimulation was continued after the anti-viral drugs were withdrawn.
Subsequent to the discontinuation of PART, plasma HIV was monitored twice weekly. Plasma HIV RNA concentrations were determined on EDTA anti-coagulated plasma samples, which were frozen (−70° C.) within 3 hours of phlebotomy. Samples were assayed by Bayer Diagnostics, Emeryville, Calif. Lymphocyte subsets were determined on fresh blood samples by flow cytometry using subset-specific monoclonal antibodies and a FACSCaliber from Becton-Dickinson, San, Jose, Calif. by standard procedures according to the manufacturer.
For 3 months prior to the discontinuation of PART, the concentration of circulating lymphocyte subsets were monitored monthly (see Table 1). Subsequent to the discontinuation of PART, the lymphocytes were monitored weekly. Whole blood (1 ml) was activated in vitro with HIV recombinant p55 antigen (Chiron Corp., Emeryville, Calif., 1 μg/ml) for 6 hours at 37 C. During the last 4 hours, Brefeldin A (Sigma, Inc., St. Louis, Mo., […]) was added to retard cytokine secretion. At the end of the incubation, EDTA (Sigma, 100 mM) was added, the blood was vortexed vigorously for 10 seconds, and the erythrocytes were lysed using 10 ml FACSLysing Reagent. After a 10 minute incubation the leukocytes were separated by centrifugation (500×g, 10 min), then resuspended and frozen (−70 C) in 2 ml R.P.M.I. 1640 tissue cuture medium containing 10% fetal calf serum and 10% dimethyl sulfoxide. Prior to labeling with monoclonal antibodies, the cells were thawed, centrifuged (500×g, 10 min) and permeabilized using FACSPerm. After washing with 3 ml phosphate buffered saline (PBS), the cells were incubated with fluorochrome-conjugated monoclonal antibodies for 30 minutes at room temperature in the dark. The cells were then washed 1× with PBS, and then fixed with 0.5% paraformaldehyde and analyzed by flow cytometry.

In the case of Interleukin-2 [IL-2], the “dose best tolerated and most effective” value (HCV; 33 subjects, s.c., 12 weeks, no IFN) is listed as 2×10^6 CT/day, the sustained virologic response (HCV; in vivo) is listed as “No sustained virologic response was found” and the “biochemical response rate (normalization of ALT) at the end of treatment” value (HCV; preferred dose, 12 weeks) is listed as 24%. For the same substance, the “biochemical response rate 6 months following a 12 week course” value (HCV; preferred dose) was 12%, the “subjects with 50% reduction in HBV viral titer” value (HBV; 9×10^6 CU s.c. weekly for three weeks, then 1.8×10^6 CU twice a week for three months) was 4/7 and the subjects with response (HBV; doses up to 3.6×10^6 CU/day SC qd for eight weeks) was 5/30. For the same substance, the “subsequent decrease in ALT levels” value (HBV; following the transient increase) was 30%, the “transient increase in ALT levels” value (HBV; in vivo) was 30% and the “Delayed Type Hypersensitivity (DTH) to common environmental antigens” value (HIV infection) was “more than doubled”. The “patients in whom the dose was toxic” value ([1]; 2.4×10^6 IU /m^2/d) was 100%, the “dose previously determined to be ineffective” value ([1]; in vivo) was 0.6 IU/m^2/d and the tolerated daily dose ([1]; individuals with HIV) was 1.2×10^6 IU/m^2/day. The “CD8+ T cell concentration as % of baseline levels” value ([2]; after 2 weeks of viremia) was > 200 % of baseline, the “mean peak increase of CD8+ T cells, group with more rapid viral decline” value ([2]; after cessation of PART) was 350 % of baseline and the “mean peak increase of CD8+ T cells, group with slower viral decline” value ([2]; after cessation of PART) was 150 % of baseline. The “change of circulating NK cells” value ([2]; entire interval after discontinuation of PART) was “did not change significantly”, the “decrease of circulating CD4+ T cells compared with baseline” value ([2]; just after the peak of viremia, after discontinuation of PART) was 24% and the “fold increase of CD8+ T cells from baseline” value ([2]; subject D3) was 8 fold. For the same substance, the “CD8+ T cells at peak” value ([2]; subject D3, coincident with drop in plasma HIV RNA) was 4,669 cells/mm3.
